Assay results published in patent US7223837B2, “Elongated and multiple spacers in activatible prodrugs” (Syntarga B.V., priority 2001, dated 2007).
In brackets after ≈: the same amount, converted by molar mass.

What was measured:
A498 = test: Anti-proliferative effect, SRB test; assay type: cell-based, human; conditions: A498 renal cancer, 5 days of incubation
Method: (§1) The anti-proliferative effect of prodrugs and parent drugs was determined in vitro applying seven well-characterised human tumor cell lines and the microculture sulphorhodamine B (SRB) test. The anti-proliferative effects were determined and expressed as IC50 values, that are the (pro)drug concentrations that gave 50% inhibition when compared to control cell growth after 5 days of incubation.

EVSA-T = test: Anti-proliferative effect, SRB test; assay type: cell-based, human; conditions: EVSA-T breast cancer, 5 days of incubation
Method: as §1

H226 = test: Anti-proliferative effect, SRB test; assay type: cell-based, human; conditions: H226 non-small cell lung cancer, 5 days of incubation
Method: as §1

IGROV = test: Anti-proliferative effect, SRB test; assay type: cell-based, human; conditions: IGROV ovarian cancer, 5 days of incubation
Method: as §1

M19 = test: Anti-proliferative effect, SRB test; assay type: cell-based, human; conditions: M19 melanoma, 5 days of incubation
Method: as §1

MCF-7 = test: Anti-proliferative effect, SRB test; assay type: cell-based, human; conditions: MCF-7 breast cancer, 5 days of incubation
Method: as §1

WIDR = test: Anti-proliferative effect, SRB test; assay type: cell-based, human; conditions: WIDR colon cancer, 5 days of incubation
Method: as §1

[1] = Stability of prodrugs in 0.1 M Tris/HCl buffer (pH 7.3); conditions: TLC
[2] = absence of zinc powder, methanol/acetic acid, same conditions
Method: 36 mg of 2′-[nitrocinnamyl carbonate]-paclitaxel 1 was dissolved in 8 ml methanol and 2 ml acetic acid. A catalytic amount of zinc powder was added and the red mixture was stirred for 12 h. Dichloromethane was added and the organic layer was washed with saturated sodium bicarbonate, 0.5 N potassium bisulfate, brine, and water and dried over anhydrous sodium sulfate.

[3] = 150 μM in 0.1 M Tris/HCl buffer (pH 7.3), 3 days

| Compound | ID50 (A498) | ID50 (EVSA-T) | ID50 (H226) | ID50 (IGROV) | ID50 (M19) | ID50 (MCF-7) | ID50 (WIDR) | formation of degradation products [1, 3] | paclitaxel release without reduction [2] | formation of degradation products ([1]; 100–270 μM in 0.1 M Tris/HCl buffer (pH 7.3), 90 hours) |
| --- | --- | --- | --- | --- | --- | --- | --- | --- | --- | --- |
| 2′-[H-D-Ala-Phe-Lys-PABC-N(Me)—(CH2)2—N(Me)CO]-paclitaxel (.2HCl) [Prodrug 43] | 0.681 µg/mL | 0.119 µg/mL | 0.062 µg/mL | 0.499 µg/mL | 0.096 µg/mL | 0.06 µg/mL | 0.117 µg/mL | no formation of degradation products |  |  |
| CC(=O)O[C@H]1C(=O)[C@@]2(C)[C@H]([C@H](OC(=O)c3ccccc3)[C@]3(O)C[C@H](OC(=O)[C@H](O)[C@@H](NC(=O)c4ccccc4)c4ccccc4)C(C)=C1C3(C)C)[C@]1(OC(C)=O)CO[C@@H]1C[C@@H]2O [Paclitaxel, paclitaxel, reference compound] | <0.003 µg/mL | <0.003 µg/mL | <0.003 µg/mL | 0.01 µg/mL (≈ 0.0117 µM) | <0.003 µg/mL | <0.003 µg/mL | <0.003 µg/mL |  |  |  |
| CC(=O)OC1C(=O)C2(C)C(O)CC3OCC3(OC(C)=O)C2C(OC(=O)c2ccccc2)C2(O)CC(OC(=O)C(OC(=O)OCc3ccc(NC(=O)OCc4ccc(NC(=O)C(CCCCN)NC(=O)C(Cc5ccccc5)NC(=O)C(C)N)cc4)cc3)C(NC(=O)c3ccccc3)c3ccccc3)C(C)=C1C2(C)C.Cl.Cl [Prodrug 22, 2′-[H-D-Ala-Phe-Lys-PABC-PABC]-paclitaxel (.2HCl)] | 0.025 µg/mL | 0.005 µg/mL | 0.007 µg/mL | 0.022 µg/mL | 0.007 µg/mL | 0.011 µg/mL | 0.005 µg/mL | no formation of degradation products |  |  |
| CC(=O)OC1C(=O)C2(C)C(O)CC3OCC3(OC(C)=O)C2C(OC(=O)c2ccccc2)C2(O)CC(OC(=O)C(OC(=O)OCC=Cc3ccc([N+](=O)[O-])cc3)C(NC(=O)c3ccccc3)c3ccccc3)C(C)=C1C2(C)C (stereo not drawn) [Prodrug 1, 2′-[4-nitrocinnamyl carbonate]-paclitaxel] |  |  |  |  |  |  |  |  | no paclitaxel was formed |  |
| COc1cccc2c1C(=O)c1c(O)c3c(c(O)c1C2=O)C[C@@](O)(C(=O)CO)C[C@@H]3O[C@H]1C[C@H](N)[C@H](O)[C@H](C)O1 [Doxorubicin, doxorubicin, reference compound] | 0.09 µg/mL (≈ 0.166 µM) | 0.008 µg/mL (≈ 0.0147 µM) | 0.199 µg/mL (≈ 0.366 µM) | 0.06 µg/mL (≈ 0.11 µM) | 0.016 µg/mL (≈ 0.0294 µM) | 0.01 µg/mL (≈ 0.0184 µM) | 0.011 µg/mL (≈ 0.0202 µM) |  |  |  |
| H-D-Ala-Phe-Lys-PABC-PABC-DOX.5.7HCl [Prodrug 20] | 2.303 µg/mL | 0.546 µg/mL | 0.503 µg/mL | 0.896 µg/mL | 0.302 µg/mL | 0.242 µg/mL | 0.627 µg/mL |  |  | no formation of degradation products |
